Measured values taken from publication PMC4307180, “Overcoming myelosuppression due to synthetic lethal toxicity for FLT3-targeted acute myeloid leukemia therapy” (eLife, 2014).
“Also recorded” adds a separate entry of the source. Like-named read-outs stand apart in the source and are kept apart here.

Tests used:
AML patients [1] = tested on: AML patients; design: method as in Cortes et al., 2013; settings: monotherapy, Phase II trial; ref Cortes et al., 2013; cited from earlier work
KIT phosphorylation = tested on: KIT phosphorylation; design: method as in Griswold et al., 2004; settings: ref Griswold et al., 2004; cited from earlier work
AML patients [2] = tested on: AML patients; design: method as in Strati et al., 2014; settings: ref Strati et al., 2014, cited from earlier work
[3] = tested on: MV4;11 cells (FLT3-ITD homozygous); assay: Cell proliferation/viability assay, MV4;11; assay type: cell-based; settings: Homo sapiens, 48 hr, ± SEM
Procedure: (§1) Exponentially growing cells (5 × 10^3 cells per well) were plated in each well of a 96-well plate with 0.1 ml of RPMI 1640 + 10% (vol/vol) FCS containing the appropriate concentration of drug in triplicate, and cell viability was assessed after 48 hr as previously described ([Smith et al., 2012]). […] Log10-scale transformation of ratios, followed by conditional formatting using xcel spreadsheet software yielded the colored diagrams shown.

[4] = tested on: mpo+ myeloid cells in zebrafish embryos; assay: Zebrafish normal myelopoiesis, mpo WISH in posterior blood island; assay type: in vivo, Danio rerio (zebrafish); settings: 10 μM, 6 to 30 hpf, read at 30 hpf, vs DMSO
Procedure: (§2) Figure 4. […] (N–P) Three categories of mpo transcription (N, normal; O, intermediate; P, severe) were defined based on the WISH results (three experiments). […] Scale bar equals 500 μm. Blue arrows indicate the pericardial edema, green arrows indicate tail shortening and curving, and red arrows indicate the FLT3-ITD AML mpo+ myeloid cells expansion. […] For all experiments: Zebrafish embryos were collected and kept in standard E3 medium at 28°C. Different concentrations of either drug were added to the E3 medium from 6 hr post fertilization (hpf) to 3 days post fertilization (dpf). Embryos treated with DMSO or 10 μM drug from 6 to 30 hpf were collected for mpo whole mount in situ hybridization (WISH) analysis. […] plasmid DNA containing FLT3/ITD sequence was microinjected into one-cell stage embryos, and the uninjected embryos were used as control. FLT3/ITD-injected embryos were treated with DMSO or 10 μM drug from 6 to 30 hpf.
(§3) Wild-type (WT) zebrafish were maintained under standard conditions, and embryos were staged as described ([He et al., 2014]). The study was approved by the Committee of the Use of Live Animals for Teaching and Research in The University of Hong Kong.

Ba/F3 FLT3 ITD + A848P = assay: Ba/F3 cell viability, FLT3 ITD + A848P; assay type: cell-based; settings: Mus musculus, Ba/F3, 48 hr, ± SEM
Procedure: (§4) Stable Ba/F3 lines were generated by retroviral spinfection with the appropriate mutated plasmid as previously described ([Smith et al., 2012]).
as §1
(§5) Mutations isolated in the screen were engineered into pMSCVpuroFLT3–ITD by QuikChange mutagenesis (Stratagene, La Jolla, CA) as previously described ([Smith et al., 2012]).

p-KIT in HMC1.1 cells = target: T1, p-KIT in HMC1.1 cells (Homo sapiens, UniProt P10721, V560G); assay: Immunoblot of p-KIT in HMC1.1; assay type: cell-based; settings: immunoblot, 90-min incubation
T1 construct: endogenous in cells; host or cells: HMC1.1

HMC1.1 cells = assay: Caspase-3 activation (apoptosis), HMC1.1; assay type: cell-based, human; settings: 48 hr, up to 2,500 nM
Procedure: Cells were fixed with 4% (vol/vol) paraformaldehyde (Electron Microscopy Sciences) and permeabilized with 100% (vol/vol) methanol (Electron Microscopy Sciences, Hatfield, PA) followed by staining with a FITC-conjugated antiactive caspase-3 antibody (BD Pharmingen, San Jose, CA). Cells were run on a BD LSRFortessa cell analyzer, and data were analyzed using FlowJo (Tree Star Inc., Ashland, OR). Percentage of live cells was determined by negative staining for activated caspase-3 (see Figure 2B,C).

Ba/F3 Parental + IL3 = assay: Ba/F3 cell viability, Parental + IL3; assay type: cell-based; settings: Mus musculus, BaF3; Ba/F3, 48 hr, ± SEM
Procedure: as §4, §1

zebrafish embryos = assay: Zebrafish embryonic development / WT morphology; assay type: in vivo, Danio rerio (zebrafish); settings: 3 dpf, drug from 6 hpf
Procedure: as §2, §3

[5] = tested on: primary patient FLT3-ITD+ AML circulating blasts; assay: Colony-forming assay, primary patient FLT3-ITD+ AML blasts; assay type: cell-based, human; settings: at 1,000 nM; ca. 1,200 CFUs in DMSO plates
From the text: (§6) Primary AML blood samples and/or marrow aspirates were obtained on an IRB-approved protocol at the University of California, San Francisco. Informed consent was obtained in accordance with the Declaration of Helsinki. Mononuclear cells were purified by density centrifugation (Ficoll–Paque Plus, GE Healthsciences) before cryopreservation in 10% (vol/vol) DMSO or FCS (primary ITD and D835-mutant assays, Figure 3A–C) or immediate use in assays (Normal BM and SPB, Figure 3D–F). Normal BM and stimulated peripheral blood (SPB) samples were collected from donors at the UCSF oncology/hematology division. Cells were then suspended in MethoCult methylcellulose (Stem Cell Technologies, product no. H4435 Enriched, Canada) in 15-ml Falcon tubes, vigorously vortexed, bubbles settled over 10 min. Triplicates then plated via blunt-nosed syringe (1.1 ml each) into 3-cm dishes, avoiding bubble generation, and each dish placed in a larger 10-cm dish with water trough in an incubator (37°C, 5% CO2) for 13–14 days. Colonies were counted individually using traditional microscopy. CFU and BFU types reported separately (CFU-GEMM colonies counted as one of each).

[6] = tested on: FLT3/ITD-injected zebrafish embryos; assay: Zebrafish FLT3/ITD-induced mpo+ myeloid cell expansion; assay type: in vivo, Danio rerio (zebrafish); settings: 10 μM, 6 to 30 hpf, read at 30 hpf
Procedure: as §2, §3

HMC1.1 cells (KIT V560G) = assay: Cell proliferation/viability assay, HMC1.1; assay type: cell-based, human; settings: Homo sapiens; Kit V560 G, 48 hr, ± SEM
Procedure: as §1

[7] = tested on: normal bone marrow (BM) and stimulated peripheral blood (SPB) hematopoietic progenitors; assay: Colony-forming assay, normal BM and stimulated peripheral blood; assay type: cell-based, human
From the text: as §6, with “each). Results shown for FLT3 ITD primary blasts (Figure 3B) are a combination of leukemic blast colonies and BFU colonies.” for “each).”

[8] = tested on: primary patient FLT3 D835 AML circulating blasts; assay: Colony-forming assay, primary patient FLT3-D835 AML blasts; assay type: cell-based, human; settings: at 1,000 nM; ca. 120 for DMSO plates
From the text: as §6

Ba/F3 FLT3 ITD + D835F = assay: Ba/F3 cell viability, FLT3 ITD + D835F; assay type: cell-based; settings: Mus musculus, Ba/F3, 48 hr, ± SEM
Procedure: as §4, §1, §5

CSF1R = CSF1R (Homo sapiens, UniProt P07333); design: purchased Reaction Biology Corporation (Malvern, PA); method as in Lopez et al., 2013; settings: at 1 µM, panel of 319 kinases; ref Lopez et al., 2013; cited from earlier work
PDGFRβ = PDGFRβ (Homo sapiens, UniProt P09619); design: purchased Reaction Biology Corporation (Malvern, PA); method as in Lopez et al., 2013; settings: at 1 µM, panel of 319 kinases; ref Lopez et al., 2013; cited from earlier work
PDGFRα = PDGFRα (Homo sapiens, UniProt P16234); design: purchased Reaction Biology Corporation (Malvern, PA); method as in Lopez et al., 2013; settings: at 1 µM, panel of 319 kinases; ref Lopez et al., 2013; cited from earlier work
KIT = KIT (Homo sapiens, UniProt P10721); design: purchased Reaction Biology Corporation (Malvern, PA); method as in Lopez et al., 2013; settings: at 1 µM, panel of 319 kinases; ref Lopez et al., 2013; cited from earlier work
FLT3 = target: T2, FLT3 (Homo sapiens, UniProt P36888); design: purchased Reaction Biology Corporation (Malvern, PA); method as in Lopez et al., 2013; settings: at 1 µM, panel of 319 kinases; ref Lopez et al., 2013; cited from earlier work
T2 sequence (P36888 27-993): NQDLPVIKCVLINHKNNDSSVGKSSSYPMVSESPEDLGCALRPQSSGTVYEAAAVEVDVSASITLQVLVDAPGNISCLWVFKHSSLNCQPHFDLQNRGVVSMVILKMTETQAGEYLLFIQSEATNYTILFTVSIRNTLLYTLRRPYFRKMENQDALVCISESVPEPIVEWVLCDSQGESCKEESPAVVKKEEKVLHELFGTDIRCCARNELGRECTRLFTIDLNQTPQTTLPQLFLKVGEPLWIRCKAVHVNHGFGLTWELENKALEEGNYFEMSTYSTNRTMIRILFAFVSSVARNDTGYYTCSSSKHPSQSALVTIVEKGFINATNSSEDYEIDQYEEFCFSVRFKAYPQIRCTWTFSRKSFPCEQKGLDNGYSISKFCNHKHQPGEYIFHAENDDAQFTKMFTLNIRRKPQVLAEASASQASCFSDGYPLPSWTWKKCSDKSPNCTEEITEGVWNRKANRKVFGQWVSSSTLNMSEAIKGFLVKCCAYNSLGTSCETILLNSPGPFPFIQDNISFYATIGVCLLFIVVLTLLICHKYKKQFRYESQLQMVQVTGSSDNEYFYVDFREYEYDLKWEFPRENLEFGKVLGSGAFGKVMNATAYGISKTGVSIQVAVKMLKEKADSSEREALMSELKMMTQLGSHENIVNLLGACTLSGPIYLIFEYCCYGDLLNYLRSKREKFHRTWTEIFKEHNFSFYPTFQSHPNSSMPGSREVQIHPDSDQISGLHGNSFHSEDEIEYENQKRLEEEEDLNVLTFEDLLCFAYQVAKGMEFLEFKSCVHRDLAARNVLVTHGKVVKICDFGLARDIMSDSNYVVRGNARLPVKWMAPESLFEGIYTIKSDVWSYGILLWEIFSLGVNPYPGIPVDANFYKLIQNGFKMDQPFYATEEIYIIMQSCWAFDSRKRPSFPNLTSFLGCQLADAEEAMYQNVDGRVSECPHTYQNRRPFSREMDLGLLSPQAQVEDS

purified FLT3 WT = target: T3, purified FLT3 WT (Homo sapiens, UniProt P36888); assay: Radiolabeled purified kinase assay (Figure 1B)
T3 sequence (P36888 27-993): T2 sequence (P36888 27-993)

PDGFRα, sequence (P16234 24-1089): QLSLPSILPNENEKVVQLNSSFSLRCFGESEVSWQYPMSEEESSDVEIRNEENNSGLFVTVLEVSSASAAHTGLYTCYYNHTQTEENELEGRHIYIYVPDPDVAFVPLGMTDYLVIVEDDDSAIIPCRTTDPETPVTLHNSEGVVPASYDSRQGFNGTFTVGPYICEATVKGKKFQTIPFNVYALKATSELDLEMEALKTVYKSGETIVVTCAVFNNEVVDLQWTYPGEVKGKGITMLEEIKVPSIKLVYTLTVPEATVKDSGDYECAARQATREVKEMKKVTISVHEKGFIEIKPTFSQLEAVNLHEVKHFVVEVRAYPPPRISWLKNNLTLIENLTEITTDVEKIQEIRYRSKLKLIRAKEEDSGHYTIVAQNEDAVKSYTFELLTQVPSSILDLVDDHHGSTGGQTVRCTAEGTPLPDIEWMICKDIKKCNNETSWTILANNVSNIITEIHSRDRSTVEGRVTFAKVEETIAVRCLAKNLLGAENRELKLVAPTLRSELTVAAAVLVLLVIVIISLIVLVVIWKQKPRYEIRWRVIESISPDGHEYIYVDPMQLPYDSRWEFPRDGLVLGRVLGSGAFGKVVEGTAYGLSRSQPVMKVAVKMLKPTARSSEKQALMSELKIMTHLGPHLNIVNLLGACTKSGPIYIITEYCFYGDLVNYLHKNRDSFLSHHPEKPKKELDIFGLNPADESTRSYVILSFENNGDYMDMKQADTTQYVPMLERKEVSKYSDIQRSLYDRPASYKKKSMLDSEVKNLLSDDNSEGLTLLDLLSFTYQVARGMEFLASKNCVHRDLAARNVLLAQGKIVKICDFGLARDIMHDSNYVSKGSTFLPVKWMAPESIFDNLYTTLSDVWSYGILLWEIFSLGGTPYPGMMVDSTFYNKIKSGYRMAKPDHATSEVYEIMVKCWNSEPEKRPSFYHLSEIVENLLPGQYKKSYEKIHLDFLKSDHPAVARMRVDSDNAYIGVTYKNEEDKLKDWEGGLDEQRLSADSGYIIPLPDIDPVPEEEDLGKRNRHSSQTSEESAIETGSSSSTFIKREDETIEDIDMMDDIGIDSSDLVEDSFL
PDGFRβ, sequence (P09619 33-1106): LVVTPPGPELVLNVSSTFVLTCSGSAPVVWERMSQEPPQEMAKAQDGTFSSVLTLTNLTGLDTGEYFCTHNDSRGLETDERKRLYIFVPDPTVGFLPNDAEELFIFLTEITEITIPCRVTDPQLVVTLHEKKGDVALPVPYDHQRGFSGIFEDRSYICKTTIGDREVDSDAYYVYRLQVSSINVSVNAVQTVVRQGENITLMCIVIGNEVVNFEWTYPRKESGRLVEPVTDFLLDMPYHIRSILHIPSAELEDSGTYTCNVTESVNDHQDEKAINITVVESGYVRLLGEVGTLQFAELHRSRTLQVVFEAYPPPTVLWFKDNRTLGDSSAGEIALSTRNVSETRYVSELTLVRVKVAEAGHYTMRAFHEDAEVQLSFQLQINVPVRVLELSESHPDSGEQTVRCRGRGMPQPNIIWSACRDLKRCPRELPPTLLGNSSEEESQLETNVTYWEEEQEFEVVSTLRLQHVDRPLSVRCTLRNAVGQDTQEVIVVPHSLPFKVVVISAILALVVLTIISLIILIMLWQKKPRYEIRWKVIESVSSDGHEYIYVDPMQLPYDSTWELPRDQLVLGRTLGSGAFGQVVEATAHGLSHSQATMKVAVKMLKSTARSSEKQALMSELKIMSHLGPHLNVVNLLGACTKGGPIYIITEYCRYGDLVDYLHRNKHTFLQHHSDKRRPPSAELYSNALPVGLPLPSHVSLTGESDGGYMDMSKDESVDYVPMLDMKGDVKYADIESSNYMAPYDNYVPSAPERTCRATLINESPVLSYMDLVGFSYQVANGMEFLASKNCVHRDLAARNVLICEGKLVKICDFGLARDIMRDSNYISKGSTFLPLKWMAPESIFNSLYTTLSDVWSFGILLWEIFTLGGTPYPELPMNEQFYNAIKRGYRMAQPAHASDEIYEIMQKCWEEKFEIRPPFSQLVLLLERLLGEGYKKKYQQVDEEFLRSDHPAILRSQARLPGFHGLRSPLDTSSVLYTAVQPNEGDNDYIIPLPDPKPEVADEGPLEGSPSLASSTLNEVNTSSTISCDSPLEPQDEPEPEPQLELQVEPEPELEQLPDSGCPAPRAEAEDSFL
KIT, sequence (P10721 26-976): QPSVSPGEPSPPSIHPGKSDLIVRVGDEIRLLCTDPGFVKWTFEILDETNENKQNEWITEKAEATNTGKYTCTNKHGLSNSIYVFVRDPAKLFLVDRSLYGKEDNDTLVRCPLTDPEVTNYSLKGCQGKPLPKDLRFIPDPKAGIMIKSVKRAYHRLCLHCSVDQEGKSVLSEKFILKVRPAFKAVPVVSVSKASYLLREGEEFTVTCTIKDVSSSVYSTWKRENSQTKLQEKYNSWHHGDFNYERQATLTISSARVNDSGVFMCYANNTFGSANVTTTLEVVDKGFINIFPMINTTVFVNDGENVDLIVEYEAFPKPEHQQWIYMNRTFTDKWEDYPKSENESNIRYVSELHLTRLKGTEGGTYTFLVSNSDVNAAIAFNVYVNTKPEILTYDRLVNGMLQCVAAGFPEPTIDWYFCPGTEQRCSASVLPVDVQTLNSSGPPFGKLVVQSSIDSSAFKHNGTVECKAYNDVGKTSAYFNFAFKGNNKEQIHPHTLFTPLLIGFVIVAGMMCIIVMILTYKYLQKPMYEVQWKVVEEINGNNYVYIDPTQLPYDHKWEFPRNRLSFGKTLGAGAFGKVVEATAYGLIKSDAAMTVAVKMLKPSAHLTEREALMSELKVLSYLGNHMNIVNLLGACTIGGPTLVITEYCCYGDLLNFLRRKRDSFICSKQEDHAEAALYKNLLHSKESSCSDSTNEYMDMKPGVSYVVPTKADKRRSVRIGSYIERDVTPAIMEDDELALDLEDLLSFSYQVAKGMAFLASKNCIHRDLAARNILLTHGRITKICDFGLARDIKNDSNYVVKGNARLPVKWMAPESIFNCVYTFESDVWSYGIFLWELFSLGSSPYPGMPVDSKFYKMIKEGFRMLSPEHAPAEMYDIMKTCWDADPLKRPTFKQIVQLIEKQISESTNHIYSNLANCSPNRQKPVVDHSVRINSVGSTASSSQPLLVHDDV
T1 sequence (P10721 26-976 V560G): as the sequence (P10721 26-976) above, with V535G counted along it
CSF1R, sequence (P07333 20-972): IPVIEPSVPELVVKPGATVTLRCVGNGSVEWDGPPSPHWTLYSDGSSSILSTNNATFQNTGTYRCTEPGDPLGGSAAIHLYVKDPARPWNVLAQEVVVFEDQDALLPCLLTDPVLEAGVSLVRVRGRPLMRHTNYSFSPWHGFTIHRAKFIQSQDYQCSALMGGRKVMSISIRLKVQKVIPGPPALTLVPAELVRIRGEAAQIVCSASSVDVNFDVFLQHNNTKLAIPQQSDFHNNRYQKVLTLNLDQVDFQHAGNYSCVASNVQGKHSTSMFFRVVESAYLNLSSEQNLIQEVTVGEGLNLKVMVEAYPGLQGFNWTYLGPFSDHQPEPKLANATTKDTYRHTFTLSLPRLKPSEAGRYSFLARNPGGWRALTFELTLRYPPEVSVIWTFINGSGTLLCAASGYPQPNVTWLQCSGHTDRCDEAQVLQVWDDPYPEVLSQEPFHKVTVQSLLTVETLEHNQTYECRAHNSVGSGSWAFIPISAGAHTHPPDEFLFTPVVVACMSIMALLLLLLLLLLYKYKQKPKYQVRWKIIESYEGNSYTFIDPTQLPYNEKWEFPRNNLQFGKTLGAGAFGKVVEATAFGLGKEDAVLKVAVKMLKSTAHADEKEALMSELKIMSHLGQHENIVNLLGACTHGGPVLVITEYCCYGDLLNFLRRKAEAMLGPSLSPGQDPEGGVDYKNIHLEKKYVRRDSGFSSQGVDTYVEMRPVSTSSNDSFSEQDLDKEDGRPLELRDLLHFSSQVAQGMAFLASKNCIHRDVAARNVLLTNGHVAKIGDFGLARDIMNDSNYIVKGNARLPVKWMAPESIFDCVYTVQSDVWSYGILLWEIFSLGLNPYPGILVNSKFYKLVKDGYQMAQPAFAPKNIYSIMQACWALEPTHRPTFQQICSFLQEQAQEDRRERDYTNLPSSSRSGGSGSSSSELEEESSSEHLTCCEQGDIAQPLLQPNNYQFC

## CC(C)(C)c1cc(NC(=O)Nc2ccc(-c3cn4c(n3)sc3cc(OCCN5CCOCC5)ccc34)cc2)no1.Cl.Cl [AC220, N-(5-tert-Butyl-isoxazol-3-yl)-N'-{4-[7-(2-morpholin-4-yl-ethoxy)imidazo[2,1-b][1,3]benzothiazol-2-yl]phenyl}urea Dihydrochloride]
AML patients [1]
  CR rate: 50%
  CRi rate: 45%

## COc1cc2c(N3CCN(C(=O)Nc4ccc(OC(C)C)cc4)CC3)ncnc2cc1OCCCN1CCCCC1 [MLN518]
KIT phosphorylation
  IC50: 170 nM

## CO[C@@H]1[C@H](N(C)C(=O)c2ccccc2)C[C@H]2O[C@]1(C)n1c3ccccc3c3c4c(c5c6ccccc6n2c5c31)C(=O)NC4 [PKC412, N-benzoylstaurosporine, reference compound]
AML patients [2]; combined with cytotoxic agents
  CR rate: 25%
  incomplete recovery of peripheral blood counts (CRi) rate: 20%
  patients developing grade 3/4 myelosuppression: over 90%
AML patients [2]; single agent Phase II trial
  complete remission (CR), single agent: failed to achieve a single complete remission
[3]
  IC50: 16 ± 5 nM
[4]
  effect on mpo+ myeloid cells development in the PBI: statistically significant granulogenesis/myelosuppression; also recorded: statistically significant suppression of myelopoiesis
Ba/F3 FLT3 ITD + A848P
  IC50: 9 ± 6 nM
p-KIT in HMC1.1 cells
  p-KIT and downstream signaling inhibition in HMC1.1 cells: inhibited p-KIT and downstream signaling to a greater degree
HMC1.1 cells
  apoptosis/toxicity (caspase-3) in KIT-addicted HMC1.1 cells: potent toxicity
Ba/F3 Parental + IL3
  IC50: 243 ± 73 nM
Zebrafish embryos
  effect on zebrafish embryonic development / morphology: substantial morphological defects to the heart at 1 μM
[5]
  raw colony numbers, FLT3-ITD+ blasts: ca. 20
[6]
  effect on FLT3/ITD-induced mpo+ myeloid cells expansion: efficaciousness similar to Star 27
HMC1.1 cells (KIT V560G)
  IC50: 354 ± 60 nM
[7]; at 1,000 nM
  raw colony numbers, normal BM: zero in most PKC412-treated replicates
[7]; normal BM and SPB donors, up to 1,000 nM
  effect on normal hematopoietic colony formation (CFU and BFU): eliminates most normal hematopoietic colony forming potential at 1 mM; also recorded: dose-dependent inhibition of colony formation
[8]
  raw colony numbers, FLT3 D835Y blasts: ca. 25
Ba/F3 FLT3 ITD + D835F
  IC50: 9 ± 3 nM

## CC(C)C[C@@H]1NC(=O)c2c1c1c3ccccc3n(CCCCN)c1c1[nH]c3ccccc3c21 [Star 12]
CSF1R
  inhibition of CSF1R: < 10%
PDGFRβ
  inhibition of PDGFRβ: < 10%
PDGFRα
  inhibition of PDGFRα: < 10%
KIT
  inhibition of KIT: < 10%
FLT3
  inhibition of FLT3: 57%
Purified FLT3 WT
  IC50: 524 ± 94 nM
